The text below walks through data of US20140341846A1, “METHODS OF INHIBITING PHOTORECEPTOR APOPTOSIS” (The Regents of The University of Michigan, priority 2009, published 2014).

“Also recorded” adds a separate entry of the source.

Assay [1] deals with Fas-mediated caspase 8 activation in 661W cells. In words: Fas-Ab induced caspase 8 activity in 661W cells. In kind it is cell-based. The conditions noted are these: 500 ng/ml Fas-Ab, 48 hours after treatment. How it is done:
The 661W cell line was maintained in Dulbecco's modified Eagle's medium containing 10% fetal bovine serum, 300 mg/L glutamine, 32 mg/L putrescine, 40 μL/L of β-mercaptoethanol, and 40 μg/L of both hydrocortisone 21-hemisuccinate and progesterone. The media also contained penicillin (90 units/ml) and streptomycin (0.09 mg/ml). Cells were grown at 37° C. in a humidified atmosphere of 5% CO2 and 95% air.
In cell culture experiments, caspase 8 activity was measured by a commercially available luminescent tetrapeptide (LETD) cleavage assay kit (Promega, Madison, Wis.). The 661W cells were seeded in 96-well plates (Nunc, Rochester, N.Y.) at 1500 cells/well for 24 hours prior to treatment. Cells were pre-treated with various concentrations of Met12, mMet, or vehicle for 1 hour prior to treatment with 500 ng/ml of Fas-agonistic Jo2 monoclonal antibody (BD Biosciences, San Jose, Calif.). Caspase 8 activity was measured at various time points by incubating the cells with the pro-luminescent substrate in 96-well plates following manufacturer's instructions. Controls included untreated cells and wells with no cells. Luminescence was measured in a plate reader luminometer (Turner Biosystems, Sunnyvale Calif.).

Assay [2] concerns caspase 8. The assay can be described thus: Caspase 8 activity in detached retinas (Met study). The format is in vivo, Brown Norway rats. To be noted: 50 μg subretinal at time of detachment; 24 hours after detachment. As for the experimental part: (§1) Retinal-RPE separation was created in Brown Norway rats by subretinal injection of 1% hyaluronic acid. Met12, derived from the Fas-binding extracellular domain of the oncoprotein Met, was injected into the subretinal space at the time of separation. […] Extrinsic apoptotic pathway was induced in 661W cells using a Fas-activating antibody in the presence or absence of Met12. Caspase 3, caspase 8, and caspase 9 activities were measured with calorimetric and luminescent assays in retinal extracts and cell lysates. Terminal deoxynucleotidyl transferase dUTP nick-end labeling (TUNEL) was performed in retinal sections 3 days after separation. Histology was performed in retinal sections 2 months after retinal detachment.
(§2) Rodents were anesthetized with a 50:50 mix of ketamine (100 mg/mL) and xylazine (20 mg/mL), and pupils were dilated with topical phenylephrine (2.5%) and tropicamide (1%). A 20-gauge microvitreoretinal blade (Walcott Scientific, Marmora, N.J.) was used to create a sclerotomy 2 mm posterior to the limbus, carefully avoiding lens damage. […]
(§3) Caspase 3, caspase 8 and caspase 9 activities were measured with colorimetric tetrapeptide cleavage assay kits, per the manufacturer's instructions (Bio-Vision, Mountain View, Calif.). […] Absorbance was measured at 405 nm in a microplate reader (Spectra-MAX 190, Molecular Devices, Sunnyvale, Calif.). […]

Assay [3] has as its system caspase 9. The assay can be described thus: Caspase 9 activity in detached retinas (Met study). In kind it is in vivo, Brown Norway rats. To be noted: 50 μg subretinal. How it is done: as §1, §2, §3
For assay [4], the system named is caspase 3. In words: Caspase 3 activity in detached retinas (Met study). The format is in vivo, Brown Norway rats. To be noted: 50 μg subretinal. How it is done: as §1, §2, §3
The test system of assay [5] is photoreceptors (outer nuclear layer). The assay can be described thus: TUNEL staining 3 days after retinal detachment (Met study). The conditions noted are these: 50 μg subretinal. The format is in vivo, Brown Norway rats. As for the experimental part:
as §1
(§4) Rodents were anesthetized with a 50:50 mix of ketamine (100 mg/mL) and xylazine (20 mg/mL), and pupils were dilated with topical phenylephrine (2.5%) and tropicamide (1%). […]
(§5) Photoreceptor cell apoptosis was quantified as the percentage of total cells in the outer nuclear layer (ONL) that were TUNEL positive. […] The total number of cells in the ONL was measured in a similar fashion. The total thickness of the retina (measured from the outer edge of the ONL to the inner limiting membrane) was measured in three places in each of three non-overlapping high power fields (40×) at the maximal height of the retinal detachment per section and averaged for each eye. […]

Assay [6] relates to Jurkat cells. To be noted: Jurkat cells (Zou et al. Nat Med. 2007); cited from earlier work.
Assay [7] concerns photoreceptors (outer nuclear layer). In words: ONL cell counts and thickness 2 months after retinal detachment (Met study). To be noted: 50 μg subretinal at time of detachment; after 2 months of retinal detachment. In kind it is in vivo, Brown Norway rats. How it is done:
as §1, §4, §5

Regarding HHGSDHERNYIY [mMet, reference compound], the “effect on Fas-Ab induced caspase 8 activation” value in assay [1] is “no effect”. Moreover, the “caspase 8 activity in detached retinas compared to attached retinas” value in assay [2] is “significantly increased”. The “effect on caspase 9 activity level in detached retinas” value in assay [3] (24 hours after detachment) is reported as “did not affect”. Further, the “effect on caspase 3 activity level in detached retinas” value in assay [4] (24 hours after detachment) is on record as “did not affect”.
With HHIYLGAVNYIY [Met12], the “effect on Fas-Ab induced caspase 8 activation” value in assay [1] was “inhibited by Met12 treatment in a dose dependent manner; also recorded: full inhibition”. Moreover, in assay [2], the “reduction of caspase 8 activity in detached retinas” value is on record as “approximately 50%”. Besides, the “fewer TUNEL-positive photoreceptors as compared with mMet-injected separated retinas” value in assay [5] was ~77%. Besides, in assay [6], the “protection from FasL induced apoptosis” value is given as “protects”. Also, the “reduction of caspase 9 activity in detached retinas” value in assay [3] (after 24 hours) was “approximately 50%”. In assay [7], the “increase in ONL cell counts compared with mMet-injected retinas” value turned out to be 37% and the “increase in ONL thickness measurements compared with mMet-injected retinas” value was found to be 27%. Further, the “reduction of caspase 3 activity in detached retinas” value in assay [4] (after 24 hours) was “approximately 50%”.
